Like-named read-outs stand apart in the source and are kept apart here.
Assays:
rats = assay: Toxicological test, parenteral administration, rats; assay type: in vivo
Source text: (§1) Both carnitines and hydroxytyrosol are well known for their low toxicity and good tolerability. These favorable toxicological characteristics of carnitines and hydroxytyrosol have been confirmed.

mice = assay: Toxicological test, parenteral administration, mice; assay type: in vivo
Source text: as §1

[1] = humans, after ingestion; cited from earlier work
[2] = after consumption of a meal, hydroxytyrosol in olive oil; cited from earlier work
[3] = cited from earlier work

SMILES | amount possible to administer parenterally (rats) | amount possible to administer parenterally (mice) | preferential route of excretion [1] | time of peak postprandial concentration [2] | oral bioavailability ([3]; aqueous solution) | oral bioavailability ([3]; olive oil solution)
CC(=O)O[C@H](CC(=O)[O-])C[N+](C)(C)C [acetyl-L-carnitine, Acetyl-L-carnitine] | up to 250 mg/kg | up to 250 mg/kg |  |  |  | 
OCCc1ccc(O)c(O)c1 [hydroxytyrosol, Hydroxytyrosol] |  |  | glucuronide conjugates in urine | 1 to 2 h | 71% | 99%

From patent US20040132821A1, “Therapeutic combination of carnitine and antioxidant polyphenols” (priority 2002, published 2004)
